Measured values taken from ChEMBL document CHEMBL5113553, “Synthesis and Bioactivity of Thiocarboxylic A and Derivatives” (J Nat Prod, 2022).
In brackets after ≈: the same amount, converted by molar mass.

What was measured:
Staphylococcus aureus = assay: Antibacterial activity against wild type Staphylococcus aureus USA300 incubated for 24 hrs; assay type: functional
Escherichia coli [1] = assay: Antibacterial activity against wild type Escherichia coli incubated for 24 hrs; assay type: functional
Escherichia coli [2] = assay: Antibacterial activity against Escherichia coli harboring delta tolC mutant assessed as inhibition of bacterial growth incubated for 24 hrs; assay type: functional, organism-based
L929 = assay: Cytotoxicity against mouse L929 cells upto 100 uM measured after 72 hrs by alamar blue assay; assay type: toxicity, cell-based; conditions: l929, 72 h
Candida albicans = assay: Antifungal activity against Candida albicans assessed as fungal growth inhibition; assay type: functional

Structure (SMILES) | MIC (Staphylococcus aureus) | MIC (Escherichia coli [1]) | IC50 (Escherichia coli [2]) | Activity (L929) | MIC (Candida albicans)
CC/C=C/C=C/[C@@]1(C)OC(c2ccsc2C)=C(C(=O)OC)C1=O | 1.7 µg/mL | 1.7 µg/mL | 44 µM | Non-Toxic | 1.7 µg/mL (≈ 5.11 µM)
CC/C=C/C=C/[C@@]1(C)OC(c2ccc(C)s2)=C(C(=O)OC)C1=O | > 100 µM | > 100 µM | – | Non-Toxic | –
CCCC/C=C/C=C/[C@@]1(C)OC(c2ccsc2C)=C(C(=O)OC)C1=O | > 100 µM | > 100 µM | – | Non-Toxic | –
CC/C=C/C=C/[C@@]1(C)OC(c2sccc2C)=C(C(=O)OC)C1=O | > 100 µM | > 100 µM | – | Non-Toxic | –
